Among the test systems are A549; HCC 2998; HCT-15; HOP-62; HT-29; KM12; M14; MOLT-4; NCI-H226; NCI/ADR-RES; PC-3; RXF 393; SF-268; SNB-19; SW-620; U-251; UACC-62; HL-60; MDA-N.
Common to all, as to experiment: inhibition of tumour cell growth, NCI panel, 48 h

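A five-concentration, 48-hour dose response in 96-well plates underlies each endpoint, interpolated linearly between surrounding concentrations. GI50 is the concentration that inhibits growth by half.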 Active and inactive are the calls of the source. Rule as the data show it: active = GI50 up to about 1.1 µM and inactive = higher.

Turning to `CCOc1ccc(N/C(=C(/C(Cl)=C(/Cl)NC(C)(C)C)[N+](=O)[O-])n2nnc3ccccc32)cc1`, the GI50 in the assay on A549 is 70.3 µM (inactive); in the assay on HCC 2998 it was > 100 µM (inactive); in the assay on HCT-15, 20.4 µM; in the assay on HOP-62, 70 µM (inactive); with HT-29, 35.1 µM (inactive); in the assay on KM12, 21.1 µM (inactive). The GI50 in the assay with M14 is > 100 µM (inactive); in the assay on MOLT-4 it was > 100 µM (inactive); in the assay on NCI-H226 it was > 100 µM (inactive); in the assay with NCI/ADR-RES, 32.4 µM (inactive); with PC-3, 28.7 µM (inactive); in the assay on RXF 393, 20.1 µM (inactive). The GI50 in the assay with SF-268 was 16.7 µM (inactive); with SNB-19 it was 47.6 µM (inactive); in the assay on SW-620, 19.2 µM (inactive); with U-251 it was 19 µM (inactive); in the assay with UACC-62 it was 22.8 µM (inactive).

Consider `CCOC(=O)c1c(NS(=O)(=O)c2ccc(C)cc2)sc2c1CCCC2`, for which the GI50 is 24.5 µM (inactive) with A549; 15.9 µM with HCT-15; 42.7 µM (inactive) in the assay on HL-60; 23.2 µM (inactive) in the assay with HOP-62; 24.2 µM (inactive) in the assay with HT-29; 19 µM (inactive) with KM12. In addition, the GI50 was 35.8 µM (inactive) in the assay on M14; 42.7 µM (inactive) with MDA-N; 37.6 µM (inactive) with MOLT-4; 40.8 µM (inactive) in the assay on NCI-H226; 27 µM (inactive) in the assay on NCI/ADR-RES; 16.2 µM (inactive) with PC-3. In addition, the GI50 with SF-268 is 26.1 µM (inactive); with SNB-19, 35.1 µM (inactive); with UACC-62 it was 17.5 µM (inactive).

With `Cc1cc(C)nc(NS(=O)(=O)c2ccc(Nc3c4ccccc4nc4c(C(=O)N5CCN(CCO)CC5)ccc(Cl)c34)cc2)n1`, the GI50 is > 100 µM (inactive) with A549; > 100 µM (inactive) in the assay on HCC 2998; 52.2 µM with HCT-15; 34.4 µM (inactive) in the assay on HL-60; > 100 µM (inactive) in the assay on HOP-62; 70 µM (inactive) in the assay with HT-29. In addition, the GI50 in the assay on KM12 was > 100 µM (inactive); in the assay with M14 it was 34 µM (inactive); in the assay with MOLT-4, 25.9 µM (inactive); in the assay on NCI-H226, > 100 µM (inactive); in the assay with RXF 393 it was > 100 µM (inactive); with SF-268 it was 76.9 µM (inactive). Further, the GI50 in the assay with SNB-19 is > 100 µM (inactive); in the assay with U-251, 97.3 µM (inactive); in the assay on UACC-62, 83 µM (inactive).

`O=C(c1ccccc1)N(CCCCNC(=O)C(F)(F)F)CCCNC(=O)C(F)(F)F`: the GI50 in the assay with A549 was > 100 µM (inactive); in the assay with HCC 2998, > 100 µM (inactive); in the assay with HCT-15, greater than 100 µM; in the assay on HL-60, > 100 µM (inactive); in the assay on HT-29 it was > 100 µM (inactive); with KM12 it was > 100 µM (inactive). Further, the GI50 in the assay with M14, with MDA-N, in the assay on MOLT-4, with NCI-H226, in the assay on NCI/ADR-RES and in the assay on RXF 393 was > 100 µM (inactive) each time. The GI50 in the assay with SF-268, in the assay on SNB-19, in the assay on SW-620, in the assay with U-251 and in the assay on UACC-62 was > 100 µM (inactive) throughout.

Turning to `CC(C)c1cc2c(O)c(c1)Cc1cc(C(C)C)cc(c1O)Cc1cc(C(C)C)cc(c1O)Cc1cc(C(C)C)cc(c1O)Cc1cc(C(C)C)cc(c1O)Cc1cc(C(C)C)cc(c1O)C2`, the GI50 with A549 is > 100 µM (inactive); in the assay with HCC 2998, > 100 µM (inactive); in the assay with HCT-15 it was greater than 100 µM; with HL-60, > 100 µM (inactive); with HOP-62, > 100 µM (inactive); in the assay with HT-29 it was > 100 µM (inactive). Also, the GI50 in the assay with KM12, with M14, in the assay on MOLT-4, in the assay with RXF 393, in the assay on SF-268 and in the assay with SNB-19 was > 100 µM (inactive) in each case. The GI50 in the assay on SW-620, in the assay with U-251 and in the assay with UACC-62 was > 100 µM (inactive) in each case.

For `CC1OC(OP(=O)(OCc2ccccc2)OCc2ccccc2)C(OC(=O)c2ccccc2)C(OC(=O)c2ccccc2)C1I` (configuration not stated), the GI50 is 26.4 µM (inactive) in the assay with A549; 54.6 µM (inactive) in the assay on HCC 2998; 45.9 µM in the assay with HCT-15; 20.7 µM (inactive) in the assay on HL-60; > 100 µM (inactive) in the assay on HOP-62; 42.9 µM (inactive) in the assay with HT-29. For the same compound, the GI50 with KM12 is 35 µM (inactive); with M14, 37.6 µM (inactive); in the assay on MOLT-4 it was 17.3 µM (inactive); in the assay with RXF 393 it was 12.7 µM (inactive); with SF-268, 52.2 µM (inactive); in the assay with SNB-19, 43.8 µM (inactive). Moreover, the GI50 with SW-620 is 72.8 µM (inactive); with U-251 it was 50.4 µM (inactive); in the assay with UACC-62, 48.9 µM (inactive).

In the case of `COc1cc(-c2nc(SC)nc3c2CCc2ccccc2-3)cc(OC)c1OC`, the GI50 with A549 was > 100 µM (inactive); in the assay on HCC 2998, > 100 µM (inactive); with HL-60 it was > 100 µM (inactive); in the assay with HOP-62, > 100 µM (inactive); in the assay on HT-29, 50.1 µM (inactive); in the assay with KM12 it was 65.9 µM (inactive). The GI50 was > 100 µM (inactive) in the assay with M14; 30.5 µM (inactive) with MOLT-4; > 10 µM (inactive) in the assay with NCI-H226; 36.3 µM (inactive) with NCI/ADR-RES; 34.5 µM (inactive) in the assay with PC-3; 36 µM (inactive) with RXF 393. The GI50 in the assay on SF-268 is 91.2 µM (inactive); in the assay with SNB-19 it was > 100 µM (inactive); with SW-620, > 100 µM (inactive); with U-251 it was 93.1 µM (inactive); in the assay with UACC-62, 82.4 µM (inactive).

As to `Cc1ccc(S(=O)(=O)NCCCN(CCCNS(=O)(=O)c2ccc(C)cc2)S(=O)(=O)c2ccc(C)cc2)cc1`, the GI50 in the assay on A549 was > 100 µM (inactive); with HCC 2998, > 100 µM (inactive); in the assay with HCT-15 it was greater than 100 µM; with HL-60, > 100 µM (inactive); in the assay on HOP-62 it was > 100 µM (inactive); with KM12, 89.1 µM (inactive). The GI50 in the assay with M14, in the assay with MOLT-4, in the assay with NCI-H226, in the assay with RXF 393, with SF-268 and with SNB-19 was > 100 µM (inactive) throughout. For the same compound, the GI50 in the assay on SW-620, with U-251 and in the assay with UACC-62 was > 100 µM (inactive) throughout.

On to `COC(=O)C(=O)CC(=O)CCn1[nH]c(=O)c(Cl)c(Cl)c1=O`, for which the GI50 with A549 is > 100 µM (inactive); in the assay with HCC 2998, > 100 µM (inactive); in the assay on HCT-15 it was greater than 100 µM; with HL-60 it was > 100 µM (inactive); with HOP-62 it was > 100 µM (inactive); in the assay with HT-29 it was > 100 µM (inactive). In addition, the GI50 in the assay with KM12, with M14, in the assay with NCI-H226, in the assay with RXF 393, with SF-268 and in the assay with SNB-19 was > 100 µM (inactive) each time. In addition, the GI50 in the assay on SW-620, in the assay with U-251 and in the assay with UACC-62 was > 100 µM (inactive) throughout.

In the case of `O=C1C(=O)N(c2ccc(Cl)cc2)C(=O)C(=O)C1c1nc2ccccc2o1`, the GI50 with A549 was > 100 µM (inactive); with HCC 2998, > 100 µM (inactive); in the assay with HCT-15, greater than 100 µM; with HL-60 it was > 100 µM (inactive); with HOP-62, > 100 µM (inactive); in the assay on HT-29, > 100 µM (inactive). Also, the GI50 in the assay with KM12, in the assay with M14, with MOLT-4, in the assay with NCI-H226, in the assay on RXF 393 and with SF-268 was > 100 µM (inactive) in each case. In addition, the GI50 in the assay with SNB-19, in the assay on SW-620, with U-251 and in the assay with UACC-62 was > 100 µM (inactive) throughout.

For the compound `CC(C)(O)[C@@H]1CC[C@](C)(C2[C@@H](O)C[C@@]3(C)C4C[C@H](OC5OCC(O)C(O)C5O)[C@H]5C(C)(C)[C@@H](OC6OCC(O)C(O)C6OC6OCC(O)C(O)C6O)CC[C@@]56C[C@@]46CC[C@]23C)O1` (some centres not stated), the GI50 was > 100 µM (inactive) in the assay with A549; > 100 µM (inactive) with HCC 2998; greater than 100 µM with HCT-15; > 100 µM (inactive) with HL-60; > 100 µM (inactive) in the assay with HOP-62; > 100 µM (inactive) with HT-29. The GI50 with KM12, in the assay on M14, in the assay with MOLT-4, with NCI-H226, with NCI/ADR-RES and with PC-3 was > 100 µM (inactive) in each case. The GI50 in the assay on RXF 393, in the assay on SF-268, in the assay with SNB-19, in the assay on SW-620, with U-251 and in the assay with UACC-62 was > 100 µM (inactive) throughout.

On to `CSC(=S)N(C)C` [CYSTOGON], for which the GI50 with A549 was > 100 µM (inactive); in the assay on HCT-15, greater than 100 µM; in the assay with HL-60, > 100 µM (inactive); with HOP-62, > 100 µM (inactive); in the assay with HT-29 it was > 100 µM (inactive); in the assay with KM12, > 100 µM (inactive). Moreover, the GI50 in the assay on M14, in the assay on MDA-N, in the assay with MOLT-4, with NCI-H226, with NCI/ADR-RES and in the assay on RXF 393 was > 100 µM (inactive) throughout. For the same compound, the GI50 in the assay with SF-268, in the assay on SNB-19, with SW-620, with U-251 and with UACC-62 was > 100 µM (inactive) each time.
